Measurements as given in patent US20120100990A1, “4 -AMINOPICOLINATES AND THEIR USE AS HERBICIDES” (SYNGENTA CROP PROTECTION LLC, priority 2009, published 2012).

Tests used:
Assay type in all cases: in vivo
[1] = system: Echinochloa crus-galli (ECHCG); experiment: Pre-emergence biological efficacy, glasshouse pot test; details: 312 h, 1,000 g/ha, evaluated after 13 days, 100=total damage, 0=no damage, read-out: Percentage damage caused to weed species, pre-emergence, ECHCG
Experimental: (§1) Seeds of Alopecurus myosuroides (ALOMY), Setaria faberi (SETFA), Echinochloa crus-galli (ECHCG), Solanum nigrum (SOLNI), Amaranthus retroflexus (AMARE) and Ipomea hederaceae (IPOHE) were sown in standard soil in pots. After cultivation for one day under controlled conditions in a glasshouse (at 24/16° C., day/night; 14 hours light; 65% humidity), the plants were sprayed with an aqueous spray solution derived from the formulation of the technical active ingredient in acetone/water (50:50) solution containing 0.5% Tween 20 (polyoxyethylene sorbitan monolaurate, CAS RN 9005-64-5) to give a final dose of 1000 or 250 g/ha of test compound. The test plants were then grown under controlled conditions in the glasshouse (at 24/16° C., day/night; 14 hours light; 65% humidity) and watered twice daily. After 13 days the test was evaluated (100=total damage to plant; 0=no damage to plant).

[2] = system: Amaranthus retroflexus (AMARE); experiment: as above; details: 312 h, 1,000 g/ha, evaluated after 13 days, 100=total damage, 0=no damage, read-out: Percentage damage caused to weed species, pre-emergence, AMARE
Experimental: as §1

Setaria faberi (SETFA) [3] = experiment: as above; details: 312 h, 1,000 g/ha, evaluated after 13 days, 100=total damage, 0=no damage, read-out: Percentage damage caused to weed species, pre-emergence, SETFA
Experimental: as §1

[4] = system: Ipomea hederaceae (IPOHE); experiment: as above; details: Ipomoea hederacea, 312 h, 1,000 g/ha, evaluated after 13 days, 100=total damage, 0=no damage, read-out: Percentage damage caused to weed species, pre-emergence, IPOHE
Experimental: as §1

Solanum nigrum (SOLNI) [5] = experiment: as above; details: 312 h, 1,000 g/ha, evaluated after 13 days, 100=total damage, 0=no damage, read-out: Percentage damage caused to weed species, pre-emergence, SOLNI
Experimental: as §1

[6] = system: Alopecurus myosuroides (ALOMY); experiment: as above; details: 312 h, 1,000 g/ha, evaluated after 13 days, 100=total damage, 0=no damage, read-out: Percentage damage caused to weed species, pre-emergence, ALOMY
Experimental: as §1

[7] = system: Echinochloa crus-galli (ECHCG); experiment: Post-emergence biological efficacy, glasshouse pot test; details: 312 h, 1,000 g/ha, evaluated after 13 days, 100=total damage, 0=no damage, read-out: Percentage damage caused to weed species, post-emergence, ECHCG
Experimental: as §1, with “for 8 days” for “for one day”, “grown on” for “grown”, “in a” for “in the”

[8] = system: Amaranthus retroflexus (AMARE); experiment: as above; details: 312 h, 1,000 g/ha, evaluated after 13 days, 100=total damage, 0=no damage, read-out: Percentage damage caused to weed species, post-emergence, AMARE
Experimental: as §1, with “for 8 days” for “for one day”, “grown on” for “grown”, “in a” for “in the”

Setaria faberi (SETFA) [9] = experiment: as above; details: 312 h, 1,000 g/ha, evaluated after 13 days, 100=total damage, 0=no damage, read-out: Percentage damage caused to weed species, post-emergence, SETFA
Experimental: as §1, with “for 8 days” for “for one day”, “grown on” for “grown”, “in a” for “in the”

[10] = system: Ipomea hederaceae (IPOHE); experiment: as above; details: Ipomoea hederacea, 312 h, 1,000 g/ha, evaluated after 13 days, 100=total damage, 0=no damage, read-out: Percentage damage caused to weed species, post-emergence, IPOHE
Experimental: as §1, with “for 8 days” for “for one day”, “grown on” for “grown”, “in a” for “in the”

Solanum nigrum (SOLNI) [11] = experiment: as above; details: 312 h, 1,000 g/ha, evaluated after 13 days, 100=total damage, 0=no damage, read-out: Percentage damage caused to weed species, post-emergence, SOLNI
Experimental: as §1, with “for 8 days” for “for one day”, “grown on” for “grown”, “in a” for “in the”

[12] = system: Alopecurus myosuroides (ALOMY); experiment: as above; details: 312 h, 1,000 g/ha, evaluated after 13 days, 100=total damage, 0=no damage, read-out: Percentage damage caused to weed species, post-emergence, ALOMY
Experimental: as §1, with “for 8 days” for “for one day”, “grown on” for “grown”, “in a” for “in the”

Row | SMILES | pest or weed control at 1000 g/ha [1] | pest or weed control at 1000 g/ha [2] | pest or weed control at 1000 g/ha (Setaria faberi (SETFA) [3]) | pest or weed control at 1000 g/ha [4] | pest or weed control at 1000 g/ha (Solanum nigrum (SOLNI) [5]) | pest or weed control at 1000 g/ha [6] | pest or weed control at 1000 g/ha [7] | pest or weed control at 1000 g/ha [8] | pest or weed control at 1000 g/ha (Setaria faberi (SETFA) [9]) | pest or weed control at 1000 g/ha [10] | pest or weed control at 1000 g/ha (Solanum nigrum (SOLNI) [11]) | pest or weed control at 1000 g/ha [12]
1 | C=Cc1c(NCc2ccccc2F)cc(Cl)nc1C(=O)OC [Compound 6-12, 6-Chloro-3-ethenyl-4-[(2-fluorophenyl-methyl)-amino]-pyridine-2-carboxylic acid methyl ester] | 30% | 100% | 40% | 60% | 100% | 40% | 20% | 100% | 80% | 70% | 90% | 20%
2 | C=Cc1c(C(=O)OC)nc(Cl)c(F)c1NCc1ccccc1[N+](=O)[O-] [Compound 15-27, 6-Chloro-3-ethenyl-5-fluoro-4-[(2-nitrophenylmeth-yl)amino]-pyridine-2-carboxylic acid methyl ester] | 90% | 100% | 90% | 90% | 100% | 90% | 70% | 100% | 90% | 90% | 100% | 70%
3 | COC(=O)c1nc(C2CC2)cc(NCc2ccco2)c1Cl [Compound 26-83, 3-chloro-6-cyclopropyl-4-[(furan-2-ylmethyl)-amino]-pyridine-2-carboxylic acid methyl ester] | 20% | 100% | 20% | 100% | 100% | 40% | 0% | 100% | 0% | 100% | 90% | 0%
4 | COC(=O)c1nc(Cl)cc(NCc2ccccc2[N+](=O)[O-])c1Br [Compound 15-17, 3-Bromo-6-chloro-4-[(2-nitrophenylmethyl)-amino]-pyridine-2-carboxylic acid methyl ester] | 20% | 100% | 60% | 90% | 90% | 40% | 30% | 80% | 80% | 80% | 90% | 50%
5 | COC(=O)c1nc(Cl)c(F)c(NCc2ccccc2[N+](=O)[O-])c1Br [Compound 15-29, 3-bromo-6-chloro-5-fluoro-4-[(2-nitrophenyl-methyl)-amino]-pyridine-2-carboxylic acid methyl ester] | 70% | 90% | 40% | 100% | 90% | 90% | 50% | 100% | 80% | 70% | 100% | 50%
6 | COC(=O)c1nc(Cl)cc(N(CCO)Cc2ccco2)c1Cl [Compound 66-2, 3,6-Dichloro-4-[N-(furan-2-ylmethyl)-N-(2-hydroxyethyl)-amino]-pyridine-2-carboxylic acid methyl ester] | 50% | 100% | 70% | 100% | 100% | 80% | 20% | 100% | 0% | 60% | 80% | 20%
7 | C=Cc1c(NCc2ccc(N(C)C)cc2)cc(Cl)nc1C(=O)OC [Compound 14-12, 6-Chloro-4-[(4-dimethylamino-phenylmethyl)-amino]-3-ethenyl-pyridine-2-carboxylic acid methyl ester] | 30% | 100% | 80% | 100% | 100% | 80% | 50% | 100% | 80% | 50% | 90% | 60%
8 | C=Cc1c(NCc2ccccc2OC)cc(Cl)nc1C(=O)OC [Compound 73-12, 6-Chloro-3-ethenyl-4-[(2-methoxyphenyl-methyl)-amino]-pyridine-2-carboxylic acid methyl ester] | 20% | 100% | 80% | 70% | 100% | 70% | 20% | 100% | 80% | 50% | 90% | 20%
9 | COC(=O)c1nc(Cl)cc(NCc2ccccc2[N+](=O)[O-])c1Cl [Compound 15-2, 3,6-Dichloro-4-[(2-nitrophenylmethyl)-amino]-pyridine-2-carboxylic acid methyl ester] | 80% | 100% | 90% | 100% | 100% | 90% | 70% | 100% | 90% | 90% | 100% | 70%
10 | COC(=O)c1nc(Cl)cc(NC[C@@H]2CCCC[C@H]2O)c1Cl [Compound 68-2, 3,6-Dichloro-pyridine-4-[trans-(2-hydroxycyclohexyl-methyl)-amino]-2-carboxylic acid methyl ester] | 0% | 100% | 80% | 90% | 100% | 70% | 20% | 100% | 70% | 70% | 100% | 40%
